Entries after “also recorded” stand apart in the source; their conditions may differ.
Columns and labels:
[1] = target: T1, ecFoID (Escherichia coli, UniProt P24186); experiment: Surface plasmon resonance assay; format: binding, E. coli
T1 construct: His-tag (vector pHis-TEV); made in house; host or cells: E. coli BL21 (DE3)
Description: (§1) All surface plasmon resonance (SPR) experiments described in this study were performed on a Biacore X100 system. Different FoIDs with or without His-tag were coupled on CM5 sensor chips (GE Healthcare) by the amine coupling method using a kit from GE Healthcare Life Sciences (Freiburg, Germany). A pH scouting process was performed before protein immobilization to test the most appropriate buffer and the protein concentration for protein coupling. Finally, 20 μg/mL of ecFoID in 10 mM maleate buffer (pH 6.8), 30 μg/mL of ecFoID Q98H in 10 mM maleate buffer (pH 6.3), 40 μg/mL of ecFoID K54N in 10 mM maleate buffer (pH 5.8), 20 μg/mL of spFoID in 10 mM maleate buffer (pH 6.0) and 15 μg/mL of MTHFD2 (His-tag cleaved) in 10 mM maleate buffer (pH 6.8) were used for coupling. In the protein immobilization procedure, the contact time was calculated based on the pH scouting results to achieve -3000-5000 relative resonance units (RU). The buffer used in the SPR assays was 1×HBS-P buffer (10 mM HEPES pH 7.4, 150 mM NaCl, 0.05% Tween 20). The 1 mM stock solution of carolacton was prepared in 1×HBS-P buffer and diluted to different concentration ranges by two-fold serial dilution. In the SPR assay, the association time was 180 s and the dissociation time was 600 s. Data analysis was performed using the Biacore evaluation software. The SPR curves were exported to be re-plotted in OriginPro 2016 (OriginLab, Northampton, Mass., US).

[2] = target: T2, ecFoID K54N (Escherichia coli, UniProt P24186, K54N); experiment: Surface plasmon resonance assay; format: binding, E. coli
T2 construct: made in house; host or cells: E. coli BL21 (DE3)
Description: as §1

SMILES: CO[C@H](CC(=O)O)[C@@H](C)C(=O)[C@H](C)/C=C(\C)[C@H]1OC(=O)[C@H](O)[C@H](O)/C=C/[C@H](C)CCC[C@@H]1C [Carolacton, carolacton]
- Kd [1]: 10 nM
- binding (SPR), in words [2]: no binding; also recorded: does not bind

Reference: US11357752B2, “Carolacton and derivatives thereof for use in the treatment of cell proliferation disorders” (Helmholtz-Zentrum für Infektionsforschung GmbH, priority 2017, dated 2022)
